# Literature values in US20250382198A1, “ADSORBENT AND METHOD FOR REMOVING PER- AND/OR POLYFLUOROALKYL SUBSTANCES (PFAS) IN WATER MATRICES” (University of Central Florida Research Foundation, Inc., priority 2024, published 2025).
smiles,measurement,value
"O=C(O)C(F)(F)C(F)(F)C(F)(F)F [PFBA, Perfluorobutanoic acid]",Log D,−1.22
"O=C(O)C(F)(F)C(F)(F)C(F)(F)C(F)(F)C(F)(F)C(F)(F)C(F)(F)F [PFOA, Perfluorooctanoic acid]",Log D,1.58
"O=S(=O)(O)C(F)(F)C(F)(F)C(F)(F)C(F)(F)C(F)(F)C(F)(F)C(F)(F)C(F)(F)F [PFOS, Perfluorooctanesulfonic acid]",Log D,3.05
"O=C(O)C(F)(OC(F)(F)C(F)(F)C(F)(F)F)C(F)(F)F (centres unmarked) [GenX, hexafluoropropylene oxide dimer acid]",Log D,0.47
same,pKa,2.84
